Data taken from patent US11179391B2, “Compound with kinase inhibitory activity and preparation method and use thereof” (priority 2017, dated 2021).
Structures can show the parent of a compound that is named as a salt. Where two headings read alike, the source gives them in different places.

How the values were obtained:
Assay type in all cases: biochemical
[1] = target: CDK4/CycD3 (Homo sapiens, UniProt P11802); assay: Determination of CDK activity (Caliper mobility shift, FAM-P8 peptide): CDK4; details: read-out: CDK4 enzymatic inhibitory activity (IC50)
Sequence of CDK4/CycD3 (P11802 whole entry): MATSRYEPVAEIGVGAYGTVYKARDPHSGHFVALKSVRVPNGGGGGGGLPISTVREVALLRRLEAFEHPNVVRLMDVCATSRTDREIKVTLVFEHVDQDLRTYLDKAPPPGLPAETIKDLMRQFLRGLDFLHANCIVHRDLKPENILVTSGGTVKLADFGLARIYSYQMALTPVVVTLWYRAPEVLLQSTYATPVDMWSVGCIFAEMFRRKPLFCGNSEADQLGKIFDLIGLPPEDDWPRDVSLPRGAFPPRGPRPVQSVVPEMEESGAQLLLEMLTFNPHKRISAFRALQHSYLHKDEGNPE
Sequence of CDK4/CycD3 (P30281 whole entry partner): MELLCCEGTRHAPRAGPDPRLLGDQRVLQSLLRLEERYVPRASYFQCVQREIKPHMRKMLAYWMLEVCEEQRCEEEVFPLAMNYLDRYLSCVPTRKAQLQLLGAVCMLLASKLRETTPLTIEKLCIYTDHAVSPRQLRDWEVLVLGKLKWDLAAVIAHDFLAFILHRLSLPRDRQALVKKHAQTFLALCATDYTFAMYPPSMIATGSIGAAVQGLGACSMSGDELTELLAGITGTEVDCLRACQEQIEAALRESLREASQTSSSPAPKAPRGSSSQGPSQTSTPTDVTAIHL
Method: (§1) In vitro, CDK (CDK4, CDK6, CDK1, CDK2, CDK7, and CDK9) kinase activity was tested by the following method.
(§2) CDK and raw materials used here: CDK4/CycD3 (Carna, Cat. No 04-105, Lot. No 10CBS-0429 C, GST-CDK4(1-303end)/GST-CycD3(1-292end)); CDK6/cycD3 (Carna, Cat. No 04-107, Lot. No 09CBS-0622K, GST-CDK6(1-326(end))); CDK1/CyclinB (Millipore, Cat. 14-450k, Lot. No 25729U, His-CDK1+GST-cyclinB); CDK2/CycA2 (Carna, Cat. No 04-103, Lot. No 06CBS-3024, GST-CDK2 (1-298(end))); CDK7/CyclinH/MAT1 (Millipore, Cat. No 14-476M, Lot. No WAB0365-A, His-CDK7+GST-MAT1+cyclinH); CDK9/cyclinTl (Millipore, Cat. No 14-685K, Lot. No. 2476163-A, His-CDK9+cyclinTl); Peptide FAM-P8 (GL Biochem, Cat. No. 112396, Lot. No. P100804-XZ112396); ATP (Sigma, Cat. No. A7699-1G, CAS No. 987-65-5); DMSO (Sigma, Cat. No. D2650, Lot. No. 474382); EDTA (Sigma, Cat. No. E5134, CAS No. 60-00-4); 96-well plate (Corning, Cat. No. 3365, Lot. No. 22008026); 384-well plate (Corning, Cat. No. 3573, Lot. No. 12608008); Staurosporine (Sigma, Cat. No. S4400-1MG, Lot. No. 046K4080).
(§3) 1. Prepared 1× Kinase Buffer and Stop Buffer for the Test
2) 1× Kinase Base Buffer (CDK4).
(§4) 1) Diluted the compound to 50 times of the maximum concentration with 100% DMSO. For example, if the desired maximum inhibitory concentration is 10 μM, then a DMSO solution of 500 μM concentration is required.
(§5) 2) Transferred the compound to a 96-well plate and serially diluted the compound from a 100% DMSO solution at a ratio of 30 μm to 60 μm for a total of 10 concentrations gradients. 3) Transferred 100 μm of 100% DMSO to two empty wells as a no compound control and a no enzyme control.
(§6) 4) Prepared intermediate plate and transferred the compound of 10 μm concentration from the original plate to the intermediate plate, and then 90 μm of 1× kinase buffer was added and mixed by shaking for 10 min.
(§7) 4) Preparing intermediate plate and transferred the compound of […] concentration from the original plate to the intermediate plate, and then 90 μm of 1× kinase buffer was added and mixed by shaking for 10 min.
(§8) 1) Transferred 5 μm of each compound from the 96-well intermediate plate to a 384-well plate. For example, A1 of the 96-well plate was transferred to A1 and A2 of the 384-well plate. A2 of the 96-well plate was transferred to A3 and A4 of the 384-well plate, and so on.
(§9) 1) Prepared a 2.5× enzyme solution: added kinase into 1× kinase base buffer.
(§10) 2) Prepared a 2.5× peptide solution: added FAM-labeled peptide and ATP into the 1× kinase base buffer.
(§11) 3) Transferred the 2.5× enzyme solution to the assay plate: Assay plate already contained 5 μm of 10% DMSO and transferred 10 μm of 2.5× enzyme solution to each well.
(§12) 4) Incubated at room temperature for 10 min.
(§13) 5) Transferred the 2.5× peptide solution to the assay plate: added 10 μm of 2.5× peptide solution to each well of the 384-well assay plate.
(§14) 6) Kinase reaction and termination: incubated at 28° C. for a specified period and added 25 μm of stop buffer to stop the reaction.
(§15) 5. Caliper Reading: Collect Data on Caliper.
(§16) 1) Copied conversion data from Caliper program and Converted conversion values to inhibition values: Inhibition rate (%)=(1−OD value of the compound-OD value of the control well)/(OD value of the control empty-OD value of the control well)*100%.
(§17) 2) Fitted the data in XLFit excel add-in version 4.3.1 to give the corresponding IC50 values.

[2] = target: CDK6/cycD3 (Homo sapiens, UniProt Q00534); assay: Determination of CDK activity (Caliper mobility shift, FAM-P8 peptide): CDK6; details: read-out: CDK6 enzymatic inhibitory activity (IC50)
Sequence of CDK6/cycD3 (Q00534 whole entry): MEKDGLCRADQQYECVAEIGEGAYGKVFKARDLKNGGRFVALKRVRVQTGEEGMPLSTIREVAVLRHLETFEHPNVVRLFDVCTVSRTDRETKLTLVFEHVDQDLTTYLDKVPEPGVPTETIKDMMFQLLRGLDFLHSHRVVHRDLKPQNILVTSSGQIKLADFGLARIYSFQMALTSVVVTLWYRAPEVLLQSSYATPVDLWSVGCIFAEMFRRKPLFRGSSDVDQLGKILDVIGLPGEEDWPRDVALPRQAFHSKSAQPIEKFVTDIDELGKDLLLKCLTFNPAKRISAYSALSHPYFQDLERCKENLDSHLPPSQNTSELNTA
Sequence of CDK6/cycD3 (P30281 whole entry partner): as the sequence (P30281 whole entry partner) above
Method: as §1, §2, §3
(§18) 1) 1× Kinase Base Buffer (CDK1, 2, and 6).
as §4, §5, §6, §7, §8, §9, §10, §11, §12, §13, §14, §15, §16, §17

[3] = target: CDK1/CyclinB (Homo sapiens, UniProt P06493); assay: Determination of CDK activity (Caliper mobility shift, FAM-P8 peptide): CDK1; details: read-out: CDK1 enzymatic inhibitory activity (IC50)
Sequence of CDK1/CyclinB (P06493 whole entry): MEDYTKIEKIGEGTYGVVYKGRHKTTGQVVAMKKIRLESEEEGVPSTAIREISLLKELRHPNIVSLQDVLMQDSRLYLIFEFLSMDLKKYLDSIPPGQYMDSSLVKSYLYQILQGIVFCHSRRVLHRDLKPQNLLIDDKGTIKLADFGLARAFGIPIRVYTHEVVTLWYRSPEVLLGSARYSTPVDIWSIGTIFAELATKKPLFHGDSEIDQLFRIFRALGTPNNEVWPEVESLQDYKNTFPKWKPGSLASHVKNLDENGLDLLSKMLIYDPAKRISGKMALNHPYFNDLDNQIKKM
Sequence of CDK1/CyclinB (P14635 whole entry partner): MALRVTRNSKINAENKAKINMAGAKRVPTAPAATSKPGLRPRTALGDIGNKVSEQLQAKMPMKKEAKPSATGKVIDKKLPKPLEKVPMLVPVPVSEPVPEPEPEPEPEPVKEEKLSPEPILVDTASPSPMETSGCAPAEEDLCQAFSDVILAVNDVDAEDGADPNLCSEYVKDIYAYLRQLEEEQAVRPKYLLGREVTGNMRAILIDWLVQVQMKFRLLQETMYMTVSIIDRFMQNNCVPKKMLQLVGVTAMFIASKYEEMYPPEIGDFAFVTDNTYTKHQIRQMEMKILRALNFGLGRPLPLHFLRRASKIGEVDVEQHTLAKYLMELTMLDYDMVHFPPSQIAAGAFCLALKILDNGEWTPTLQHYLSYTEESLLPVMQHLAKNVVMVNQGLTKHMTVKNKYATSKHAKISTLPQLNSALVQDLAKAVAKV
Method: as §1, §3, §18, §4, §5
(§19) 1) Transferred 5 μm of each compound from the 96-well intermediate plate to a 384-well plate. […] A2 of the 96-well plate was transferred to A3 and A4 of the 384-well plate, and so on.
as §9, §10, §11, §12, §13, §14, §15, §16, §17

[4] = target: CDK2/CycA2 (Homo sapiens, UniProt P24941); assay: Determination of CDK activity (Caliper mobility shift, FAM-P8 peptide): CDK2; details: read-out: CDK2 enzymatic inhibitory activity (IC50)
Method: as §1, §3, §18, §4, §5, §19, §9, §10, §11, §12, §13, §14, §15, §16, §17

[5] = target: CDK7/CyclinH/MAT1 (Homo sapiens, UniProt P50613); assay: Determination of CDK activity (Caliper mobility shift, FAM-P8 peptide): CDK7; details: read-out: CDK7 enzymatic inhibitory activity (IC50)
Sequence of CDK7/CyclinH/MAT1 (P50613 whole entry): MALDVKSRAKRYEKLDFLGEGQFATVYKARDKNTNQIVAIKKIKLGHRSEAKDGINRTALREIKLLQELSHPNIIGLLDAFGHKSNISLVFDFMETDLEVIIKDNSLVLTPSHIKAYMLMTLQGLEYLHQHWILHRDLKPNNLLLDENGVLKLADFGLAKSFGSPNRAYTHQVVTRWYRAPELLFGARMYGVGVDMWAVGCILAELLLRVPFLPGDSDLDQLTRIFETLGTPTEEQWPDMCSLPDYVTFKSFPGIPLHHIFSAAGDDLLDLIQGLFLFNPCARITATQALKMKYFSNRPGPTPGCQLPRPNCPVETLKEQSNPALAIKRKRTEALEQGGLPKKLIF
Sequence of CDK7/CyclinH/MAT1 (P51946 whole entry partner): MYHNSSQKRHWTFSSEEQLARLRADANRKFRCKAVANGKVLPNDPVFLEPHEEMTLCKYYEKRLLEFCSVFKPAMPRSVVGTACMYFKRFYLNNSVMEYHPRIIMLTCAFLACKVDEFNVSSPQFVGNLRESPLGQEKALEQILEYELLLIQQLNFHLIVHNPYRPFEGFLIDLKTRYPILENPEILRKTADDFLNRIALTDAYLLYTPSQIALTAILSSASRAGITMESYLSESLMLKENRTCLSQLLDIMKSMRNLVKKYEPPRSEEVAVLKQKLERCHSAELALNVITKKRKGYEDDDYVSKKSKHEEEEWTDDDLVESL
Sequence of CDK7/CyclinH/MAT1 (P51948 whole entry partner): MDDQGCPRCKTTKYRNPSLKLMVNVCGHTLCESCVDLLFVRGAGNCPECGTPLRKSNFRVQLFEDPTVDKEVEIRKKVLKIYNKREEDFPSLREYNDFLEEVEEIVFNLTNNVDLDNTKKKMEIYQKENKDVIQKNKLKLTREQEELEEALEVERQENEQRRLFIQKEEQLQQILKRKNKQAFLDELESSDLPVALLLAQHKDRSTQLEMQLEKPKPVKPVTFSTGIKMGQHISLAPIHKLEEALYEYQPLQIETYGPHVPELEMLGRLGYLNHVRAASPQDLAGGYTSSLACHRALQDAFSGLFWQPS
Method: as §1, §2, §3
(§20) 3) 1× Kinase Base Buffer (CDK7 and 9).
as §4, §5, §6, §7, §8, §9, §10, §11, §12, §13, §14, §15, §16, §17

[6] = target: CDK9/cyclinTl (Homo sapiens, UniProt P50750); assay: Determination of CDK activity (Caliper mobility shift, FAM-P8 peptide): CDK9; details: read-out: CDK9 enzymatic inhibitory activity (IC50)
Sequence of CDK9/cyclinTl (P50750 whole entry): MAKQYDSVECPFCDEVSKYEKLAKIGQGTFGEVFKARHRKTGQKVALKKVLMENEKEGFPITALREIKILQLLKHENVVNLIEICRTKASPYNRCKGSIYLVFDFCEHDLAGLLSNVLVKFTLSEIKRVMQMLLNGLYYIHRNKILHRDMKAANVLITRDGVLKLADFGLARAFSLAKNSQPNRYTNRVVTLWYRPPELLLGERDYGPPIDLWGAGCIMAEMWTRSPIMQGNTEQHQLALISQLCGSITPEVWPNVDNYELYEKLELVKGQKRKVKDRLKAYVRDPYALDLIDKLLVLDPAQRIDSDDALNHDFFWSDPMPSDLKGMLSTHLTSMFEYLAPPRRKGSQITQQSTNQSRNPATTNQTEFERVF
Sequence of CDK9/cyclinTl (O60563 whole entry partner): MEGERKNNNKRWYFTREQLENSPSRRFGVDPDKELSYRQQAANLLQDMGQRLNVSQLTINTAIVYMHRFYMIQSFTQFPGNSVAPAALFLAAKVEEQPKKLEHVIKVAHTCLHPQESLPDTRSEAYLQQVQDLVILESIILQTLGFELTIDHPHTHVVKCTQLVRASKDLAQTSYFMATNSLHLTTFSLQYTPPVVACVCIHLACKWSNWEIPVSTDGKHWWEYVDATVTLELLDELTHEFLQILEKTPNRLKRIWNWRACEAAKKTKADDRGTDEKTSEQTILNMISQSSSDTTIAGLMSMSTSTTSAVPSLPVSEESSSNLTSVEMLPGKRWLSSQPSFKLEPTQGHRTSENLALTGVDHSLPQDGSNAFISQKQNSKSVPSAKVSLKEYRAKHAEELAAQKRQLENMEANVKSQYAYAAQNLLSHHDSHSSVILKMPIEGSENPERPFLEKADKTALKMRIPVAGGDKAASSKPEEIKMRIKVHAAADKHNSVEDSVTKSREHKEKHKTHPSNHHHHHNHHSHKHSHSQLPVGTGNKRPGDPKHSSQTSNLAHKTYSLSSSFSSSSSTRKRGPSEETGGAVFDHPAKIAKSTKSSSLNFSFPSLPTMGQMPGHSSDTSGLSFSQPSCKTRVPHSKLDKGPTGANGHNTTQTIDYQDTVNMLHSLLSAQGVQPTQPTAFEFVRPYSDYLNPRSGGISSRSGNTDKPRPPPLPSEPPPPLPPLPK
Method: as §1, §3, §20, §4, §5, §19, §9, §10, §11, §12, §13, §14, §15, §16, §17

SMILES | IC50 ([1]; CDK4/CycD3) | IC50 ([2]; CDK6/cycD3) | IC50 ([3]; CDK1/CyclinB) | IC50 ([4]; CDK2/CycA2) | IC50 ([5]; CDK7/CyclinH/MAT1) | IC50 ([6]; CDK9/cyclinTl) | IC50 [1] | IC50 [2] | IC50 [3] | IC50 [4] | IC50 [5] | IC50 [6]
C=C(c1ccc(Nc2ncc(F)c(-c3cc(F)c4nc(C)n(C(C)C)c4c3)n2)nc1)C1CCNCC1 [Example 34] | 100 to 500 nM | 100 to 500 nM | 500 to 1000 nM | 100 to 500 nM | 1000 to 10000 nM | 100 to 500 nM |  |  |  |  |  | 
C=C(c1ccc(Nc2ncc(F)c(-c3cc(F)c4nc(C)n(C(C)C)c4c3)n2)nc1)N1CCN(CC)CC1 [Example 36] | 100 to 500 nM | 100 to 500 nM | 500 to 1000 nM | 500 to 1000 nM | 1000 to 10000 nM | 500 to 1000 nM |  |  |  |  |  | 
Cc1nc2c(F)cc(-c3nc(Nc4ccc(C(O)C5CCNCC5)cn4)ncc3F)cc2n1C(C)C (stereo not drawn) [Example 42, (6-((5-Fluoro-4-(4-fluoro-1-isopropyl-2-methyl-1H-benzo[d]imidazol-6-yl)pyrimidin-2-yl)amino)pyridin-3-yl)(piperidin-4-yl) methanol hydrochloride] |  |  |  |  |  |  | 100 to 500 nM | 100 to 500 nM | 100 to 500 nM | < 100 nM | 100 to 500 nM | 100 to 500 nM
Cc1nc2c(F)cc(-c3nc(Nc4ccc([C@H](O)C5CCNCC5)cn4)ncc3F)cc2n1C(C)C [Example 43] | < 100 nM | 100 to 500 nM | 100 to 500 nM | 100 to 500 nM | 500 to 1000 nM | 100 to 500 nM |  |  |  |  |  | 
CCN1CCC([C@@H](OC)c2ccc(Nc3ncc(F)c(-c4cc(F)c5nc(C)n(C(C)C)c5c4)n3)nc2)CC1 [Example 45] | < 100 nM | 100 to 500 nM | 100 to 500 nM | < 100 nM | 1000 to 10000 nM | 100 to 500 nM |  |  |  |  |  | 
Cc1nc2c(F)cc(-c3nc(Nc4ccc([C@H](O)C5CCN(C)CC5)cn4)ncc3F)cc2n1C(C)C [Example 49] | < 100 nM | < 100 nM | 100 to 500 nM | 100 to 500 nM | 100 to 500 nM | 100 to 500 nM |  |  |  |  |  | 

The remaining lines, values ahead:

IC50 ([1]; CDK4/CycD3) | IC50 ([2]; CDK6/cycD3) | IC50 ([3]; CDK1/CyclinB) | IC50 ([4]; CDK2/CycA2) | IC50 ([5]; CDK7/CyclinH/MAT1) | IC50 ([6]; CDK9/cyclinTl) | IC50 [1] | IC50 [2] | IC50 [3] | IC50 [4] | IC50 [5] | IC50 [6] | SMILES
< 100 nM | 100 to 500 nM | 100 to 500 nM | < 100 nM | 1000 to 10000 nM | < 100 nM |  |  |  |  |  |  | C=C(c1ccc(Nc2ncc(F)c(-c3cc(F)c4nc(C)n(C(C)C)c4c3)n2)nc1)C1CCN(C)CC1 [Example 35]
100 to 500 nM | 100 to 500 nM | 100 to 500 nM | 100 to 500 nM | 100 to 500 nM | 500 to 1000 nM |  |  |  |  |  |  | Cc1nc2c(F)cc(-c3nc(Nc4ccc([C@@H](O)C5CCNCC5)cn4)ncc3F)cc2n1C(C)C [Example 44]
< 100 nM | 100 to 500 nM | 100 to 500 nM | < 100 nM | 1000 to 10000 nM | 100 to 500 nM |  |  |  |  |  |  | CCN1CCC([C@H](OC)c2ccc(Nc3ncc(F)c(-c4cc(F)c5nc(C)n(C(C)C)c5c4)n3)nc2)CC1 [Example 46]
< 100 nM | 100 to 500 nM | < 100 nM | < 100 nM | 100 to 500 nM | 100 to 500 nM |  |  |  |  |  |  | Cc1nc2c(F)cc(-c3nc(Nc4ccc([C@@H](O)C5CCN(C)CC5)cn4)ncc3F)cc2n1C(C)C [Example 50]
